From patent publication EP2975030B1, “DIHYDROPYRIDAZINE-3,5-DIONE DERIVATIVE” (Chugai Seiyaku Kabushiki Kaisha, priority 2013, dated 2014)

Experiments:
[1] = system: rat small-intestinal brush border membrane vesicles; assay: Inhibitory effect on 33PO4 uptake into rat small-intestinal brush border membrane vesicles (rapid filtration method); format: biochemical, Wistar female rat; details: 1 µM test compound, 33PO4 uptake into rat small-intestinal BBMVs, 60 seconds
Summary of the method: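 Uptake was terminated by ice-cold 110 mM NaCl, 1 mM KH2PO4, 10 mM HEPES (pH 7.5) buffer and immediate suction filtration, then washing. Using rat small-intestinal BBMVs, retained 33PO4 was quantified by liquid scintillation counting as transport activity.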

[2] = system: adenine-induced renal failure rat; assay: Suppressive effect on rise in serum phosphorus concentration of adenine-induced renal failure rat (0.05% in feed, 8 days); format: in vivo, Wistar male rat; details: rate of suppression of a rise in serum phosphorus concentration, 0.05% of mass concentration in feed
Description: Test Example 6: Suppressive effect on rise in serum phosphorus concentration of adenine-induced renal failure rat
Each adenine-induced renal failure rat was prepared in the same way as in Test Example 5. Each test compound was mixed at a ratio of 0.05% of mass concentration with feed. The animal was fed with a given amount of the feed for 8 days. A group given feed non-supplemented with a test compound was used as a reference pathological group, and an adenine-unadministered group given feed non-supplemented with a test compound was used as a normal group. 8 days after the start of administration of the test compound, blood was collected from the jugular vein, and serum was collected. Serum phosphorus concentrations were measured by the Fiske-Subbarow method. The rate of suppression of a rise in serum phosphorus concentration was determined according to the following expression: Rate (%) of supression of a rise in serum phosphorus concentration = (1−[(Serumphosphorusconcentrationofthetestcompound−treatedpathologicalgroup)−(Serumphosphorusconcentrationofthenormalgroup)]/[(Serumphosphorusconcentrationofthereferencepathologicalgroup)−(Serumphosphorusconcentrationofthenormalgroup)]) × 100 [formula]
As a result, each test compound was confirmed to have a suppressive effect on a rise in serum phosphorus concentration. […]

human NaPi-IIb = assay: Inhibitory effect on 33PO4 uptake into human NaPi-IIb-expressing cell; format: cell-based; details: CHO cells stably expressing human NaPi-IIb, 1, 3, 10, or 30 µM
Description: CHO cells were transfected with human NaPi-IIb expression plasmids, and a stably human NaPi-IIb-expressing cell line was obtained using G418. The human NaPi-IIb-expressing cells were inoculated to a 96-well plate and incubated overnight in a CO2 incubator. The medium was replaced with buffer A (145 mM choline chloride, 3 mM KCl, 1 mM CaCl2, 0.5 mM MgCl2, 5 mM glucose, and 5 mM MES (pH 6.5)) and then replaced with buffer B (145 mM NaCl, 3 mM KCl, 1 mM CaCl2, 0.5 mM MgCl2, 5 mM glucose, and 5 mM MES (pH 6.5)) supplemented with each test compound at a final concentration of 1,3, 10, or 30 µM or buffer A supplemented with DMSO. After a given time, a 1/20 volume of buffer A containing ^33PO4 was added thereto and reacted at room temperature. After washing with ice-cold buffer A, a liquid scintillator was added to each reaction mixture, and the amount of ^33PO4 uptake was measured using TopCount. The rate of inhibition was determined according to the following expression: [formula]

[3] = system: adenine-induced renal failure rat; assay: Suppressive effect on rise in serum phosphorus concentration of adenine-induced renal failure rat (0.1% in feed, 3 days); format: in vivo, Wistar male rat; details: feed or water, 72 h, rate of suppression of a rise in serum phosphorus concentration, 0.1% of mass concentration in feed
Text: Test Example 5: Suppressive effect on rise in serum phosphorus concentration of adenine-induced renal failure rat Adenine was forcedly administered orally to each Wistar male rat (7-8 weeks old) to impair renal functions and thereby prepare a hyperphosphatemia model ([…], Nagano N, Burke SK, Fukushima N. Sevelamer hydrochloride prevents ectopic calcification and renal osteodystrophy in chronic renal failure rats. Kidney Int. 2003 Aug; 64 (2): 441-50). Each test compound was mixed at a ratio of 0.1% of mass concentration with feed. The animal was fed with a given amount of the feed for 3 days. A group given feed non-supplemented with a test compound was used as a reference pathological group, and an adenine-unadministered group given feed non-supplemented with a test compound was used as a normal group. 3 days after the start of administration of the test compound, blood was collected from the jugular vein, and serum was collected. Serum phosphorus concentrations were measured by the Fiske-Subbarow method. The rate of suppression of a rise in serum phosphorus concentration was determined according to the following expression: Rate (%) of suppression of a rise in serum phosphorus concentration = (1-[([…]-treatedpathologicalgroup); -(Serumphosphorusconcentrationofthenormalgroup)]/; [(Serumphosphorusconcentrationofthereferencepathologicalgroup)-(Serumphosphorusconcentrationofthenormalgroup)]) × 100 [formula] As a result, each test compound was confirmed to have a suppressive effect on a rise in serum phosphorus concentration. […]

Structure (SMILES): CN(C[C@H](O)[C@@H](O)[C@H](O)[C@H](O)CO)C(=O)CCCOc1ccc(CN2C(=O)C(C(=O)Nc3ccc(C(F)(F)F)cc3-c3cc(C(F)(F)F)ncn3)=C(O)C3(CCCC3)N2C)c(F)c1F [Example 418, 7-[[2,3-Difluoro-4-[4-[methyl-[(2S,3R,4R,5R)-2,3,4,5,6-pentahydroxyhexyl]amino]-4-oxobutoxy]phenyl]methyl]-10-hydroxy-6-methyl-8-oxo-N-[4-(trifluoromethyl)-2-[6-(trifluoromethyl)pyrimidin-4-yl]phenyl]-6,7-diazaspiro[4.5]dec-9-ene-9-carboxamide]
- Rate of uptake inhibition (%) (1 µM) [1]: 29%
- Rate of inhibition (%) [2]: 38%

Structure (SMILES): CN1N(Cc2ccc(OCCNCCS(=O)(=O)O)c(F)c2F)C(=O)C(C(=O)Nc2ccc(C(F)(F)F)cc2-c2cc(C(F)(F)F)ncn2)=C(O)C12CCCC2 [Example 436, 2-[2-[2,3-Difluoro-4-[[10-hydroxy-6-methyl-8-oxo-9-[[4-(trifluoromethyl)-2-[6-(trifluoromethyl)pyrimidin-4-yl]phenyl]carbamoyl]-6,7-diazaspiro[4.5]dec-9-en-7-vl]methyl]phenoxy]ethylamino]ethanesulfonic acid]
- Rate of uptake inhibition (%) (1 µM) ([1]; 1 µM): 12%
- IC50 (human NaPi-IIb): 14 µM

Structure (SMILES): CN(C)S(=O)(=O)N1CCC(c2cc(C(F)(F)F)ccc2NC(=O)C2=C(O)[C@@]3(C)CCCN3N(Cc3cccc(F)c3F)C2=O)CC1 [Example 110]
- Rate of uptake inhibition (%) (1 µM) [1]: 57%
- IC50 (human NaPi-IIb): 19.8 µM

Structure (SMILES): C[C@]12CCCN1N(Cc1ccc(C#CCN3CCOCC3)c(F)c1F)C(=O)C(C(=O)Nc1ccc(C(F)(F)F)cc1-c1ccc(C(F)(F)F)nc1)=C2O [Example 140, (4aR)-1-[[2,3-Difluoro-4-(3-morpholin-4-ylprop-1-ynyl)phenyl]methyl]-4-hydroxy-4a-methyl-2-oxo-N-[4-(trifluoromethyl)-2-[6-(trifluoromethyl)pyridin-3-yl]phenyl]-6,7-dihydro-5H-pyrrolo[1,2-b]pyridazine-3-carboxamide]
- Rate of uptake inhibition (%) (1 µM) [1]: 77%
- inhibition in vivo at 0.1 %, 0.1 % in feed [3]: 39%

Structure (SMILES): CN1N(Cc2ccc(OCCN3CCOCC3)c(F)c2F)C(=O)C(C(=O)Nc2ccc(C(F)(F)F)cc2-c2cc(C(F)(F)F)ncn2)=C(O)C12CCC2 [Example 317, 6-[[2,3-Difluoro-4-(2-morpholin-4-ylethoxy)phenyl]methyl]-9-hydroxy-5-methyl-7-oxo-N-[4-(trifluoromethyl)-2-[6-(trifluoromethyl)pyrimidin-4-yl]phenyl]-5,6-diazaspiro[3.5]non-8-ene-8-carboxamide]
- Rate of uptake inhibition (%) (1 µM) [1]: 57%
- inhibition in vivo at 0.1 %, 0.1 % in feed [3]: 22%

Structure (SMILES): COC[C@@H]1CCCN1CCOc1ccc(CN2C(=O)C(C(=O)Nc3ccc(C(F)(F)F)cc3-c3cc(C(F)(F)F)ncn3)=C(O)C3(CCC3)N2C)c(F)c1F [Example 345, 6-[[2,3-Difluoro-4-[2-[(2S)-2-(methoxymethyl)pyrrolidin-1-yl]ethoxy]phenyl]methyl]-9-hydroxy-5-methyl-7-oxo-N-[4-(trifluoromethyl)-2-[6-(trifluoromethyl)pyrimidin-4-yl]phenyl]-5,6-diazaspiro[3.5]non-8-ene-8-carboxamide]
- Rate of uptake inhibition (%) (1 µM) [1]: 73%
- inhibition in vivo at 0.1 %, 0.1 % in feed [3]: 19%

Structure (SMILES): CN(C)CC(C)(C)COc1ccc(CN2C(=O)C(C(=O)Nc3ccc(C(F)(F)F)cc3-c3cc(C(F)(F)F)ncn3)=C(O)C3(CCCC3)N2C)c(F)c1F [Example 414, 7-(4-(3-(Dimethylamino)-2,2-dimethylpropoxy)-2,3-difluorobenzyl)-10-hydroxy-6-methyl-8-oxo-N-(4-(trifluoromethyl)-2-(6-(trifluoromethyl)pyrimidin-4-yl)phenyl)-6,7-diazaspiro[4.5]dec-9-ene-9-carboxamide]
- Rate of uptake inhibition (%) (1 µM) [1]: 27%
- Rate of inhibition (%) [2]: 37%

Structure (SMILES): C[C@]12CCCN1N(Cc1ccc(OCCCCOC[C@H](O)CO)c(F)c1F)C(=O)C(C(=O)Nc1ccc(C(F)(F)F)cc1-c1cc(C(F)(F)F)ncn1)=C2O [Example 152, (4aR)-1-[[4-[4-[(2R)-2,3-Dihydroxypropoxy]butoxy]-2,3-difluorophenyl]methyl]-4-hydroxy-4a-methyl-2-oxo-N-[4-(trifluoromethyl)-2-[6-(trifluoromethyl)pyrimidin-4-yl]phenyl]-6,7-dihydro-5H-pyrrolo[1,2-b]pyridazine-3-carboxamide]
- Rate of uptake inhibition (%) (1 µM) [1]: 54%
- inhibition in vivo at 0.1 %, 0.1 % in feed [3]: 26%
